Our source for the IC50 values is patent US9242996B2 (Novartis AG, priority 2013, dated 2016).

pIC50: −log10 of the molar value.

Sequence of activated ERK2 (P28482 whole entry): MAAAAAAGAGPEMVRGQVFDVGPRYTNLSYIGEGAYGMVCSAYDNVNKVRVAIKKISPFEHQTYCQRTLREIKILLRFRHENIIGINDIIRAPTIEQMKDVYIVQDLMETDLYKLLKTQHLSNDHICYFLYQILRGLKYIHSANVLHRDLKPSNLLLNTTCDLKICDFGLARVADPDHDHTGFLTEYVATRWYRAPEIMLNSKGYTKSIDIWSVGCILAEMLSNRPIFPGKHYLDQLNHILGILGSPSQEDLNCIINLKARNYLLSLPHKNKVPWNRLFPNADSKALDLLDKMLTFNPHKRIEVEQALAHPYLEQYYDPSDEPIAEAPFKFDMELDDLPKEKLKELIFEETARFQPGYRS

The target in the test is activated ERK2 (Homo sapiens (Human), UniProt P28482). The experiment in a line: Activated ERK2 (20 pM) Kinase Assay (AlphaScreen, ERKtide phosphorylation). The conditions noted are these: 0.02 nM ERK2, 400 nM ERKtide peptide, 35 μM ATP, 30 min preincubation. The class given is biochemical. Summed up:
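AlphaScreen read-out (anti-phospho-EGFR Thr669 antibody, protein A acceptor/streptavidin donor beads) of ERKtide (400 nM) phosphorylation by 20 pM activated ERK2 at 35 μM ATP.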
(In general: Bead proximity is the source of the signal in Alpha formats.)
As usually defined, the pIC50 is the negative decadic logarithm of the IC50, by convention in mol/L. High values mean a low IC50, low ones a high IC50. The molecule `Nc1ncc([C@H]2CC[C@H](O)CC2)cc1-c1ccc(C(=O)N[C@H](CO)c2cccc(Cl)c2)c(F)c1` [Example 442, 4-(2-amino-5-((1r,4S)-4-hydroxy-cyclohexyl)pyridin-3-yl)-N-((S)-1-(3-chlorophenyl)-2-hydroxyethyl)-2-fluorobenzamide] had a pIC50 of 9.47.
Molecule `C[C@@H](NC(=O)c1ccc(-c2cc([C@H]3CC[C@H](O)CC3)cnc2N)cc1F)c1cc(F)cc(S(C)(=O)=O)c1` [Example 443, 4-(2-amino-5-((1r,4R)-4-hydroxy-cyclohexyl)pyridin-3-yl)-2-fluoro-N-((R)-1-(3-fluoro-5-(methylsulfonyl)phenyl)ethyl) benzamide] had a pIC50 of 9.46.
The value for `Nc1ncc([C@H]2CC[C@@H](F)CC2)nc1-c1ccc(C(=O)N[C@H](CO)c2cccc(Cl)c2)c(F)c1` [Example 448, 4-(3-amino-6-((1s,4R)-4-fluorocyclohexyl)pyrazin-2-yl)-N-((S)-1-(3-chlorophenyl)-2-hydroxyethyl)-2-fluorobenzamide] was 9.43; that for `Nc1ncc([C@H]2CC[C@H](F)CC2)nc1-c1ccc(C(=O)N[C@H](CO)c2cccc(Cl)c2)c(F)c1` [Example 449, 4-(3-amino-6-((1r,4S)-4-fluorocyclohexyl)pyrazin-2-yl)-N-((S)-1-(3-chlorophenyl)-2-hydroxyethyl)-2-fluorobenzamide] was 9.74.
In turn, `N#CC1CCC(c2cnc(N)c(-c3ccc(C(=O)N[C@H](CO)c4cc(F)cc(Br)c4)c(F)c3)n2)CC1` (stereo partly drawn) [Example 450, (S)-4-(3-amino-6-(4-cyanocyclohexyl)pyrazin-2-yl)-N-(1-(3-bromo-5-fluorophenyl)-2-hydroxyethyl)-2-fluorobenzamide] showed a pIC50 of 8.82.
The value for `N#CC1CCC(c2cnc(N)c(-c3ccc(C(=O)N[C@H](CO)c4cc(F)cc(Br)c4)c(F)c3)n2)CC1` (stereo partly drawn) [Example 451, (S)-4-(3-amino-6-(4-cyanocyclohexyl)pyrazin-2-yl)-N-(1-(3-bromo-5-fluorophenyl)-2-hydroxyethyl)-2-fluorobenzamide] was 10.35; that for `CNC[C@@H](NC(=O)c1ccc(-c2nc([C@H]3CC[C@H](O)C(F)(F)C3)cnc2N)cc1F)c1cc(F)cc(Br)c1` [Example 458] was 10.08.
The value for `Nc1ncc([C@@H]2CC[C@@H](O)C(F)(F)C2)nc1-c1ccc(C(=O)N[C@H](CO)c2cc(F)cc(Br)c2)c(F)c1` [Example 459, 4-(3-amino-6-((1R,4R)-3,3-difluoro-4-hydroxy-cyclohexyl)pyrazin-2-yl)-2-fluoro-N-((S)-1-(3-fluoro-5-bromophenyl)-2-hydroxyethyl) benzamide] was 10.58; that for `Nc1ncc([C@H]2CC[C@H](O)C(F)(F)C2)nc1-c1ccc(C(=O)N[C@H](CO)c2cc(F)cc(Br)c2)c(F)c1` [Example 460, 4-(3-amino-6-((1S,4S)-3,3-difluoro-4-hydroxy-cyclohexyl)pyrazin-2-yl)-2-fluoro-N-((S)-1-(3-fluoro-5-bromophenyl)-2-hydroxyethyl) benzamide] was 10.40.
Molecule `Nc1ncc([C@@H]2CC[C@@H](O)[C@H](O)C2)nc1-c1ccc(C(=O)N[C@H](CO)c2cc(F)cc(I)c2)c(F)c1` [Example 461, 4-(3-amino-6-((1R,3R,4R)-3,4-dihydroxy-cyclohexyl)pyrazin-2-yl)-2-fluoro-N-((S)-1-(3-fluoro-5-iodophenyl)-2-hydroxyethyl) benzamide] gave a pIC50 of 11.37. This pIC50 is 0.97 log units higher than that of the molecule before.
For the molecule `Nc1ncc([C@@H]2CC[C@H](O)[C@H](O)C2)nc1-c1ccc(C(=O)N[C@H](CO)c2cc(F)cc(I)c2)c(F)c1` [Example 462, 4-(3-amino-6-((1R,3R,4S)-3,4-dihydroxy-cyclohexyl)pyrazin-2-yl)-2-fluoro-N-((S)-1-(3-fluoro-5-iodophenyl)-2-hydroxyethyl) benzamide], the pIC50 was 9.87.
Then `Nc1ncc([C@H]2CC[C@H](O)[C@@H](O)C2)nc1-c1ccc(C(=O)N[C@H](CO)c2cc(F)cc(I)c2)c(F)c1` [Example 463, 4-(3-amino-6-((1S,3S,4S)-3,4-dihydroxy-cyclohexyl)pyrazin-2-yl)-2-fluoro-N-((S)-1-(3-fluoro-5-iodophenyl)-2-hydroxyethyl) benzamide], with 11.26.
Then `Nc1ncc([C@H]2CC[C@@H](O)[C@@H](O)C2)nc1-c1ccc(C(=O)N[C@H](CO)c2cc(F)cc(I)c2)c(F)c1` [Example 464, 4-(3-amino-6-((1S,3S,4R)-3,4-dihydroxy-cyclohexyl)pyrazin-2-yl)-2-fluoro-N-((S)-1-(3-fluoro-5-iodophenyl)-2-hydroxyethyl) benzamide], with 9.86; and `Nc1ncc([C@@H]2CC[C@@H](O)[C@H](O)C2)nc1-c1ccc(C(=O)N[C@H](CO)c2cc(F)cc(Br)c2)c(F)c1` [Example 465, 4-(3-amino-6-((1R,3R,4R)-3,4-dihydroxy-cyclohexyl)pyrazin-2-yl)-2-fluoro-N-((S)-1-(3-fluoro-5-bromophenyl)-2-hydroxyethyl) benzamide], with 10.73.
The value for `Nc1ncc([C@H]2CC[C@@H](O)[C@@H](O)C2)nc1-c1ccc(C(=O)N[C@H](CO)c2cc(F)cc(Br)c2)c(F)c1` [Example 466, 4-(3-amino-6-((1S,3S,4R)-3,4-dihydroxy-cyclohexyl)pyrazin-2-yl)-2-fluoro-N-((S)-1-(3-fluoro-5-bromophenyl)-2-hydroxyethyl) benzamide] was 9.66.
Turning to `Nc1ncc([C@H]2CC[C@H](O)[C@@H](O)C2)nc1-c1ccc(C(=O)N[C@H](CO)c2cc(F)cc(Br)c2)c(F)c1` [Example 467, 4-(3-amino-6-((1S,3S,4S)-3,4-dihydroxy-cyclohexyl)pyrazin-2-yl)-2-fluoro-N-((S)-1-(3-fluoro-5-bromophenyl)-2-hydroxyethyl) benzamide], the pIC50 was 10.35.
Then `Nc1ncc([C@@H]2CC[C@H](O)[C@H](O)C2)nc1-c1ccc(C(=O)N[C@H](CO)c2cc(F)cc(Br)c2)c(F)c1` [Example 468, 4-(3-amino-6-((1R,3R,4S)-3,4-dihydroxy-cyclohexyl)pyrazin-2-yl)-2-fluoro-N-((S)-1-(3-fluoro-5-bromophenyl)-2-hydroxyethyl) benzamide], with 9.60; and `CO[C@H]1CC[C@H](c2cnc(N)c(-c3ccc(C(=O)N[C@H](CO)c4cc(F)cc(Br)c4)c(F)c3)n2)C[C@@H]1O` [Example 469, 4-(3-amino-6-((1S,3S,4S)-3-hydroxy,4-methoxylcyclo-hexyl)pyrazin-2-yl)-2-fluoro-N-((S)-1-(3-fluoro-5-bromophenyl)-2-hydroxyethyl) benzamide], with 9.87.
The value for `Nc1ncc([C@H]2CCC(F)(F)[C@H](O)C2)nc1-c1ccc(C(=O)N[C@H](CO)c2cccc(Cl)c2)c(F)c1` [Example 470, 4-(3-amino-6-((1S,3R)-4,4-difluoro-3-hydroxycyclo-hexyl)pyrazin-2-yl)-N-((S)-1-(3-chlorophenyl)-2-hydroxyethyl)-2-fluorobenzamide] was 9.66; that for `Nc1ncc([C@@H]2CCC(F)(F)[C@H](O)C2)nc1-c1ccc(C(=O)N[C@H](CO)c2cccc(Cl)c2)c(F)c1` [Example 471, 4-(3-amino-6-((1R,3R)-4,4-difluoro-3-hydroxycyclo-hexyl)pyrazin-2-yl)-N-((S)-1-(3-chlorophenyl)-2-hydroxyethyl)-2-fluorobenzamide] was 9.32.
